≈ marks a conversion by molar mass, not a printed value. Calls of active or inactive are those of the source. No cut-off for these calls is given here.

For assay [1], the system named is Saccharomyces cerevisiae. Nature of the assay: microbe, parasite or virus in culture.
Assay [2] deals with Saccharomyces cerevisiae. In words: Compound was evaluated for inhibitory activity against Saccharomyces cerevisiae. The format is functional.
The subject of assay [3] is Candida albicans. Nature of the assay: Compound was evaluated for inhibitory activity against Candida albicans. Format: functional.
Assay [4] has as its system Candida albicans. In words: microbe, parasite or virus in culture.
For assay [5], the system named is Candida albicans. Nature of the assay: Compound was evaluated for inhibitory activity against Candida albicans; IA= Inactive. Format: functional, organism-based.
Assay [6] deals with Saccharomyces cerevisiae. Nature of the assay: Compound was evaluated for inhibitory activity against Saccharomyces cerevisiae; IA= Inactive. Format: functional, organism-based.
Assay [7] has as its system Saccharomyces cerevisiae. Nature of the assay: Compound was evaluated for inhibitory activity against Saccharomyces cerevisiae; IA = Inactive. The format is functional, organism-based.
Assay [8] concerns Candida albicans. Nature of the assay: Compound was evaluated for inhibitory activity against Candida albicans; 2-3.2. Format: functional.
Assay [9] relates to Saccharomyces cerevisiae. In words: Compound was evaluated for inhibitory activity against Saccharomyces cerevisiae; 2-3.2. Format: functional.
Assay [10] concerns Saccharomyces cerevisiae. Nature of the assay: Compound was evaluated for inhibitory activity against Saccharomyces cerevisiae; 3.2-4. Format: functional.
Assay [11] concerns Candida albicans. Nature of the assay: Compound was evaluated for inhibitory activity against Candida albicans; 3.2-4. The format is functional.
For assay [12], the system named is Saccharomyces cerevisiae. Nature of the assay: Compound was evaluated for inhibitory activity against Saccharomyces cerevisiae; 4-6.4. Format: functional.
Assay [13] has as its system Candida albicans. In words: Compound was evaluated for inhibitory activity against Candida albicans; 4-6.4. The format is functional.

For `Clc1ccc(COC(Cn2ccnc2)c2ccc(Cl)cc2Cl)c(Cl)c1` (centres undefined) [MICONAZOLE], the MIC in the assay with Saccharomyces cerevisiae [1] is 1.6 µg/mL (≈ 3.84 µM); with Saccharomyces cerevisiae [2], < 1.6 µg/mL; in the assay with Candida albicans [3], < 1.6 µg/mL; in the assay on Candida albicans [4] it was 1.6 µg/mL (≈ 3.84 µM).

With `CC1(CBr)C2CCC1(CBr)C(=O)C2` (centres undefined), the MIC result in the assay with Candida albicans [5] and with Saccharomyces cerevisiae [6] was “inactive” each time.

Regarding `Oc1c(I)cc(I)c2cccnc12`, the MIC entry in the assay on Candida albicans [5] and with Saccharomyces cerevisiae [7] was “inactive” each time.

Consider `Cc1c(Cc2c(C)n(C)n(-c3ccccc3)c2=O)c(=O)n(-c2ccccc2)n1C`, for which the MIC entry in the assay with Candida albicans [5] and with Saccharomyces cerevisiae [7] was “inactive” each time.

As to `[Cl-].[Cl-].c1ccc(-c2nn(-c3ccccc3)[n+](-c3ccc(-c4ccc(-[n+]5nc(-c6ccccc6)nn5-c5ccccc5)cc4)cc3)n2)cc1` [NEOTETRAZOLIUM CHLORIDE], the MIC with Saccharomyces cerevisiae [2] and against Candida albicans [3] was < 1.6 µg/mL in each case.

For the compound `O=c1sc2sc(=O)sc2s1`, the MIC against Candida albicans [8] and against Saccharomyces cerevisiae [9] was 2 µg/mL (≈ 9.6 µM) each time.

On to `CCC(=O)O` [PROPIONIC ACID], for which the MIC in the assay with Saccharomyces cerevisiae [10] and in the assay on Candida albicans [11] was 3.2 µg/mL (≈ 43.2 µM) in each case.

As to `BrC1[C@H]2C[C@@H]3C[C@@H](C[C@H]1C3)C2` (some centres undefined), the MIC with Saccharomyces cerevisiae [12] and against Candida albicans [13] was 4 µg/mL (≈ 18.6 µM) in each case.

On to `Brc1sc(Br)c(Br)c1Br`, for which the MIC entry in the assay on Candida albicans [5] and in the assay with Saccharomyces cerevisiae [6] was “inactive” throughout.

With `BrCCc1c[nH]c2ccccc12`, the MIC in the assay on Candida albicans [8] and in the assay on Saccharomyces cerevisiae [9] was 2 µg/mL (≈ 8.92 µM) each time.

In the case of `O=C(Nc1ccccc1)c1ccccc1O` [SALICYLANILIDE], the MIC in the assay with Candida albicans [8] and against Saccharomyces cerevisiae [9] was 2 µg/mL (≈ 9.38 µM) throughout.
